From patent US11059832B2, “HPK1 inhibitors and methods of using same” (University Health Network, priority 2015, dated 2021)
pIC50: −log10 of the molar value.

Experiments:
Format in all cases: biochemical
FLT3 = biological target: T1, FLT3 (Homo sapiens, UniProt P36888); test: FLT3 inhibition, FRET based Z'-LYTE Kinase Assay; conditions: 1 nM FLT3, 940 μM ATP; read-out: IC50 Range Flt3
T1 construct: purchased Invitrogen PV3182
T1 sequence (P36888 27-993): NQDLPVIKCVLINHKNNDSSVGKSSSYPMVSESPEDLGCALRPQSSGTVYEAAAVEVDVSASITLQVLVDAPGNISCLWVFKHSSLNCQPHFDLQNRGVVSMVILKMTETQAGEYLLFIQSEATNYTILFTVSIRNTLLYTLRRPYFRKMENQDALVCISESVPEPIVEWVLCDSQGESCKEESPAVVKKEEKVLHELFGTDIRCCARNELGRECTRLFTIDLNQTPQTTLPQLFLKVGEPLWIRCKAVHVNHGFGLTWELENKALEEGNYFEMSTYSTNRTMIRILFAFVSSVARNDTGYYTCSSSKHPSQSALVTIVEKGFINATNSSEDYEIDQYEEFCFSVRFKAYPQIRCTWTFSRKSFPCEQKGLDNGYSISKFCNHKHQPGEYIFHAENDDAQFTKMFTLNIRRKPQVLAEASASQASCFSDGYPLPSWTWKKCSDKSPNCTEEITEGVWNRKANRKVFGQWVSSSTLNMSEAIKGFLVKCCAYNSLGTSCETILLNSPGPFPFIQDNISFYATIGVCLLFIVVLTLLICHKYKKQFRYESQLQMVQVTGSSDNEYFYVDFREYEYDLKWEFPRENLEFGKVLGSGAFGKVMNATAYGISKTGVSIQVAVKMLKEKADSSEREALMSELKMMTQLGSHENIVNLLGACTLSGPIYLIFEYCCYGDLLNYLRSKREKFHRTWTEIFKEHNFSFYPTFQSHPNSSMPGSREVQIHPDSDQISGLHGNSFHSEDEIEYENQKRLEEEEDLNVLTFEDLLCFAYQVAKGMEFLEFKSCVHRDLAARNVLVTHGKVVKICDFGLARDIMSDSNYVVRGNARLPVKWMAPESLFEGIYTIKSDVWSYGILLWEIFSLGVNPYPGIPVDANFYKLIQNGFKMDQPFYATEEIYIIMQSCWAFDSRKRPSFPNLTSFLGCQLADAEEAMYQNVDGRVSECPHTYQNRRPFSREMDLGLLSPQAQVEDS
Procedure: (§1) FLT3 and LCK compound inhibition were determined using FRET based Z′-LYTE Kinase Assay Kit with Tyrosine 2 peptide as the substrate (Invitrogen cat #PV3191). […] The % inhibition values were determined according to the manufacturer's directions and IC50 values were obtained using a non-linear 4 point logistic curve fit (XLfit4, IDBS).

human HPK1 (MAP4K1) = biological target: T2, human HPK1 (MAP4K1) (Homo sapiens, UniProt Q92918); test: HPK1 inhibition assay (indirect ELISA); conditions: GST-HPK1 0.6 nM, 12 μM ATP; read-out: IC50 Range HPK1
T2 construct: human HPK1 (aa 1-346); purchased Invitrogen PV6355
T2 sequence (Q92918 1-346): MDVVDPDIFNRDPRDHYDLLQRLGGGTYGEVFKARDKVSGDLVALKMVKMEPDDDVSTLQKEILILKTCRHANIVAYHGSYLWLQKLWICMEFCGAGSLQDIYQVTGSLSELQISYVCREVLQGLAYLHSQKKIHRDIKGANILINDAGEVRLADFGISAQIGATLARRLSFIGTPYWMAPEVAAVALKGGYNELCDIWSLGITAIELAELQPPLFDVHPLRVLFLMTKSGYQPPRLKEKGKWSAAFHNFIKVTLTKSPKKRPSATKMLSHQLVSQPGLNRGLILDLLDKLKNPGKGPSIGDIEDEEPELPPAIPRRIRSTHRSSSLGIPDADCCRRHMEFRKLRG
Procedure: Active HPK1 (MAP4K1) was purchased as an N-terminal GST fusion of human HPK1 (aa 1-346) from Invitrogen (cat #PV6355). HPK1 activity was measured using an indirect ELISA detection system. GST-HPK1 (0.6 nM) was incubated in the presence of 12 μM ATP (Sigma cat #A7699), 5 mM MOPS (pH 7.2), 2.5 mM β-glycerol-phosphate, 5 mM MgCl2, 0.4 mM EDTA, 1 mM EGTA, 0.05 mM DTT, in a 96 well microtitre plate pre-coated with 0.5 μg/well bovine myelin basic protein (MBP) (Millipore, cat #13-110). The reaction was allowed to proceed for 30 min, followed by 5 washes of the plate with Wash Buffer (phosphate buffered saline supplemented with 0.2% Tween 20), and incubation for 30 min with a 1:3000 dilution of anti-phospho-threonine rabbit polyclonal antibody (Cell Signaling cat #9381). The plate was washed 5 times with wash buffer, incubated for 30 min in the presence of goat anti-rabbit horse radish peroxidase conjugate (BioRad cat #1721019, 1:3000 concentration), washed an additional 5 times with wash buffer, and incubated in the presence of TMB substrate (Sigma cat #T0440). The colorimetric reaction was allowed to continue for 5 min, followed by addition of stop solution (0.5 N H2SO4), and quantified by detection at 450 nm with a monochromatic plate reader (Molecular Devices M5).
Compound inhibition was determined at either a fixed concentration (10 μM) or at a variable inhibitor concentration (typically 50 μM to 0.1 μM in a 10 point dose response titration). Compounds were pre-incubated in the presence of enzyme for 15 min prior to addition of ATP and the activity remaining quantified using the above described activity assay. The % inhibition of a compound was determined using the following formula; % inhibition=100×(1−(experimental value−background value)/(high activity control−background value)). The IC50 value was determined using a non-linear 4 point logistic curve fit (XLfit4, IDBS) with the formula; (A+(B/(1+((x/C)^D)))), where A=background value, B=range, C=inflection point, D=curve fit parameter.

LCK = biological target: T3, LCK (Homo sapiens, UniProt P06239); test: LCK inhibition, FRET based Z'-LYTE Kinase Assay; conditions: 25 nM LCK, 180 μM ATP; read-out: IC50 Range Lck
T3 construct: purchased Invitrogen P3043
Procedure: as §1

T3 sequence (P06239 whole entry, species assumed): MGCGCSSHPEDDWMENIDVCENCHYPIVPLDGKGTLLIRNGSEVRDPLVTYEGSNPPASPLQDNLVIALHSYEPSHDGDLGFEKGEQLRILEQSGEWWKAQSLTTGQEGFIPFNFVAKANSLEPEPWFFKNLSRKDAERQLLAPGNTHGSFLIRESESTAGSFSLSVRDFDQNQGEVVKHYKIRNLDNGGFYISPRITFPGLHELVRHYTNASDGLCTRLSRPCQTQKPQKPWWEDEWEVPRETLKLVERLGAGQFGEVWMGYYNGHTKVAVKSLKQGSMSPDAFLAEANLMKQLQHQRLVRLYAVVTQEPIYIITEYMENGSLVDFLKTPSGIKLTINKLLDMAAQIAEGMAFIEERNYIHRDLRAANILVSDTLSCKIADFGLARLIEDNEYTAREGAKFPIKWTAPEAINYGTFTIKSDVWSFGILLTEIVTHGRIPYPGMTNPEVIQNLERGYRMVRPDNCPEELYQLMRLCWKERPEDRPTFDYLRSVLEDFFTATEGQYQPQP

| Structure (SMILES) | pIC50 (FLT3) | pIC50 (human HPK1 (MAP4K1)) | pIC50 (LCK) |
| --- | --- | --- | --- |
| CN1CCN(c2ccc3nc(-c4c(N[C@@H]5CC[C@@H](O)C5)c5ccsc5[nH]c4=O)[nH]c3c2)CC1 (relative stereo) [Example A9, 4-(((1R*,3R*)-3-hydroxycyclopentyl)amino)-5-(6-(4-methylpiperazin-1-yl)-1H-benzo[d]imidazol-2-yl)thieno[2,3-b]pyridin-6(7H)-one] | ≥ 7.30 | ≥ 7.30 | ≥ 7.30 |
| CN1CCN(c2ccc3nc(-c4c(N[C@@H]5CC[C@H](O)C5)c5ccsc5[nH]c4=O)[nH]c3c2)CC1 (relative stereo) [Example A13, 4-(((1R*,3S*)-3-hydroxycyclopentyl)amino)-5-(6-(4-methylpiperazin-1-yl)-1H-benzo[d]imidazol-2-yl)thieno[2,3-b]pyridin-6(7H)-one] | ≥ 7.30 | ≥ 7.30 | 6.30 to 7.30 |
| CN1CCN(c2ccc3nc(-c4c(N[C@@H]5CC[C@H](O)C5)c5sccc5[nH]c4=O)[nH]c3c2)CC1 (relative stereo) [Example A36, 7-(((1R*,3S*)-3-hydroxycyclopentyl)amino)-6-(6-(4-methylpiperazin-1-yl)-1H-benzo[d]imidazol-2-yl)thieno[3,2-b]pyridin-5(4H)-one] | ≥ 7.30 | ≥ 7.30 | ≥ 7.30 |
| CN1CCN(c2ccc3nc(-c4c(N[C@H]5CCNC[C@H]5F)c5ccsc5[nH]c4=O)[nH]c3c2)CC1 (relative stereo) [Example A55, 4-(((3R*,4S*)-3-fluoropiperidin-4-yl)amino)-5-(6-(4-methylpiperazin-1-yl)-1H-benzo[d]imidazol-2-yl)thieno[2,3-b]pyridin-6(7H)-one] | ≥ 7.30 | ≥ 7.30 | 6.30 to 7.30 |
| Cc1csc2[nH]c(=O)c(-c3nc4ccc(N5CCN(C)CC5)cc4[nH]3)c(N)c12 [Example A2, 4-amino-3-methyl-5-(6-(4-methylpiperazin-1-yl)-1H-benzo[d]imidazol-2-yl) thieno[2,3-b]pyridin-6(7H)-one] | ≥ 7.30 | ≥ 7.30 | 6.30 to 7.30 |
| Nc1c(-c2nc3ccc(N4CCOCC4)cc3[nH]2)c(=O)[nH]c2sccc12 [Example A4, 4-amino-5-(6-morpholino-1H-benzo[d]imidazol-2-yl)thieno[2,3-b]pyridin-6(7H)-one] | ≥ 7.30 | ≥ 7.30 | 6.30 to 7.30 |
| CN1CCN(c2ccc3nc(-c4c(NC5CCOCC5)c5ccsc5[nH]c4=O)[nH]c3c2)CC1 [Example A7, 5-(6-(4-methylpiperazin-1-yl)-1H-benzo[d]imidazol-2-yl)-4-((tetrahydro-2H-pyran-4-yl)amino)thieno[2,3-b]pyridin-6(7H)-one] | ≥ 7.30 | ≥ 7.30 | 6.30 to 7.30 |
| CN1CCN(c2ccc3nc(-c4c(N[C@H]5C[C@H](O)C5)c5ccsc5[nH]c4=O)[nH]c3c2)CC1 [Example A8, 4-(((1r,3r)-3-hydroxycyclobutyl)amino)-5-(6-(4-methylpiperazin-1-yl)-1H-benzo[d]imidazol-2-yl)thieno[2,3-b]pyridin-6(7H)-one] | ≥ 7.30 | ≥ 7.30 | 6.30 to 7.30 |
| CN1CCN(c2ccc3nc(-c4c(N[C@@H]5CCNC[C@H]5F)c5ccsc5[nH]c4=O)[nH]c3c2)CC1 [Example A14, 4-(((3R,4R)-3-fluoropiperidin-4-yl)amino)-5-(6-(4-methylpiperazin-1-yl)-1H-benzo[d]imidazol-2-yl)thieno[2,3-b]pyridin-6(7H)-one] | ≥ 7.30 | ≥ 7.30 | ≥ 7.30 |
| CN1CCN(c2ccc3nc(-c4c(NC5CCNCC5(F)F)c5ccsc5[nH]c4=O)[nH]c3c2)CC1 (stereo not shown) [Example A15, 4-((3,3-difluoropiperidin-4-yl)amino)-5-(6-(4-methylpiperazin-1-yl)-1H-benzo[d]imidazol-2-yl)thieno[2,3-b]pyridin-6(7H)-one] | ≥ 7.30 | ≥ 7.30 | ≥ 7.30 |
| CN1CCN(c2ccc3nc(-c4c(NC5CCN(C=O)CC5)c5ccsc5[nH]c4=O)[nH]c3c2)CC1 [Example A17, 4-((5-(6-(4-methylpiperazin-1-yl)-1H-benzo[d]imidazol-2-yl)-6-oxo-6,7-dihydrothieno[2,3-b]pyridin-4-yl)amino)piperidine-1-carbaldehyde] | ≥ 7.30 | ≥ 7.30 | ≥ 7.30 |
| CN1CCN(c2ccc3nc(-c4c(NCc5ccncc5)c5sccc5[nH]c4=O)[nH]c3c2)CC1 [Example A22, 6-(6-(4-methylpiperazin-1-yl)-1H-benzo[d]imidazol-2-yl)-7-((pyridin-4-ylmethyl)amino)thieno[3,2-b]pyridin-5(4H)-one] | ≥ 7.30 | ≥ 7.30 | 6.30 to 7.30 |
| CN1CCN(c2ccc3nc(-c4c(NC5CCCC5)c5cscc5[nH]c4=O)[nH]c3c2)CC1 [Example A24, 4-(cyclopentylamino)-3-(6-(4-methylpiperazin-1-yl)-1H-benzo[d]imidazol-2-yl)thieno[3,4-b]pyridin-2(1H)-one] | ≥ 7.30 | ≥ 7.30 | ≥ 7.30 |
| CN1CCN(c2ccc3nc(-c4c(NC5CCC5)c5cscc5[nH]c4=O)[nH]c3c2)CC1 [Example A27, 4-(cyclobutylamino)-3-(6-(4-methylpiperazin-1-yl)-1H-benzo[d]imidazol-2-yl)thieno[3,4-b]pyridin-2(1H)-one] | ≥ 7.30 | ≥ 7.30 | ≥ 7.30 |
| Nc1c(-c2nc3ccc(N4CCOCC4)cc3[nH]2)c(=O)[nH]c2ccsc12 [Example A31, 7-amino-6-(6-morpholino-1H-benzo[d]imidazol-2-yl)thieno[3,2-b]pyridin-5(4H)-one] | ≥ 7.30 | ≥ 7.30 | 6.30 to 7.30 |
| CN1CCN(c2ccc3nc(-c4c(N)c5ccsc5[nH]c4=O)[nH]c3c2F)CC1 [Example A69, 4-amino-5-(7-fluoro-6-(4-methylpiperazin-1-yl)-1H-benzo[d]imidazol-2-yl)thieno[2,3-b]pyridin-6(7H)-one] | ≥ 7.30 |  | 6.30 to 7.30 |
| CN1CCN(c2ccc3nc(-c4c(N[C@H]5CCCC[C@H]5O)c5cscc5[nH]c4=O)[nH]c3c2)CC1 [Example A70, 4-(((1S,2R)-2-hydroxycyclohexyl)amino)-3-(6-(4-methylpiperazin-1-yl)-1H-benzo[d]imidazol-2-yl)thieno[3,4-b]pyridin-2(1H)-one] | ≥ 7.30 |  | ≥ 7.30 |
